From article PMC6325219, “Preclinical Characterization of NVR 3-778, a First-in-Class Capsid Assembly Modulator against Hepatitis B Virus” (Antimicrobial Agents and Chemotherapy, 2018)
Like-named read-outs stand apart in the source and are kept apart here.

Experiments:
HBV [1] = experiment: Combination study of NVR 3-778 with nucleos(t)ide analogs in HepG2.2.15 cells (MacSynergy II, CalcuSyn); assay type: cell-based, hepatitis B virus (GT D)
Experimental: The effect of the compound combinations on cell viability was evaluated by measuring the intracellular ATP levels of HepG2.2.15 cells.
(§1) HepG2.2.15 cells were seeded in 96-well plates at a density of 40,000 cells/well and incubated with serially diluted compounds at a final DMSO concentration of 0.5%. In combination studies, cells were treated with compounds either alone or in combination after combining the compounds in a checkerboard format. In studies examining the effect of human serum, serially diluted NVR 3-778 was added into cell culture medium containing 0% to 40% human serum (BioreclamationIVT). Cells were incubated with the compounds for 3 days, after which the medium was removed, fresh medium containing the compounds was added to the cells, and the cells were incubated for another 3 days prior to harvesting of the supernatants or cells for antiviral assays. To quantify intracellular encapsidated rcDNA or encapsidated pgRNA, cells were first solubilized using lysis buffer containing 1% NP-40 and 10 mM CaCl2. The cytoplasmic fraction was then treated with S7 nuclease (6 units) to remove nonencapsidated nucleic acids, after which the S7 nuclease was inactivated by the addition of EDTA (0.5 M). To quantify extracellular HBV DNA or HBV RNA, supernatants from HepG2.2.15 cells were treated with Turbo DNase at 37°C for 60 min, followed by inactivation of DNase at 75°C for 15 min. The levels of HBV DNA were determined by a bDNA assay as described above (Affymetrix). Supernatants or cell lysates containing HBV RNA were treated with proteinase K (2.5 µg) at 50°C for 40 min, transferred to a capture plate containing HBV RNA probe sets, and hybridized overnight at 55°C. Captured HBV RNA was measured by the addition of a chemiluminescent substrate using a QuantiGene assay (Affymetrix). To determine the cytotoxicity effect of the compounds on proliferating cells, HepG2.2.15 cells were seeded in 96-well plates at a density of 10,000 cells/well and incubated with serially diluted compounds at a final DMSO concentration of 0.5% for 3 days, after which the medium was removed, fresh medium containing the compounds was added to the cells, and the cells were incubated for another 3 days. At day 6, the CellTiter-Glo reagent was added to the cells and viability was determined according to the manufacturer’s protocol (Promega). Luminescence signals were measured at 0.2 s using a Victor X4 multimode plate reader (PerkinElmer).
To determine percent inhibition, the mean background signal from wells containing only culture medium was subtracted from the signal for all other samples, and percent inhibition at each compound concentration was calculated by normalization to the signals for HepG2.2.15 cells treated with 0.5% DMSO. […] Both CalcuSyn and MacSynergy II (Ann Arbor, MI) software were used to evaluate the effect of compound combinations ([27]). After data analysis at the 95% confidence level, values of synergy or antagonism of <25 µM^2% were defined as insignificant, those between 25 and 50 µM^2% were defined as minor, those between 50 and 100 µM^2% were defined as moderate, and those of >100 µM^2% were defined as strong.

HBV [2] = experiment: Antiviral studies using HepG2.2.15 cells (HBV DNA and HBV RNA readouts); assay type: cell-based, hepatitis B virus (GT D); settings: for Effect on secreted HBV RNA, single drug: 6 days, increasing concentrations; for EC50: Hepatitis B virus
Experimental: as §1, with “In” for “HepG2.2.15 cells were seeded in 96-well plates at a density of 40,000 cells/well and incubated with serially diluted compounds at a final DMSO concentration of 0.5%. In”, “To quantify extracellular HBV DNA or HBV RNA, supernatants from HepG2.2.15 cells were treated with Turbo DNase at 37°C for 60 min, followed by inactivation of DNase at 75°C for 15 min.” left out, “To determine the cytotoxicity effect of the compounds on proliferating cells, HepG2.2.15 cells were seeded in 96-well plates at a density of 10,000 cells/well and incubated with serially diluted compounds at a final DMSO concentration of 0.5% for 3 days, after which the medium was removed, fresh medium containing the compounds was added to the cells, and the cells were incubated for another 3 days.” left out

HepG2.2.15 cells = experiment: Cell viability of HepG2.2.15 cells (ATP levels, CellTiter-Glo); assay type: cell-based; settings: NVR 3-778 up to 4 μM and LMV up to 1.5 μM, alone or in combination, 6 days
Experimental: as §1, with “In” for “HepG2.2.15 cells were seeded in 96-well plates at a density of 40,000 cells/well and incubated with serially diluted compounds at a final DMSO concentration of 0.5%. In”, “To quantify extracellular HBV DNA or HBV RNA, supernatants from HepG2.2.15 cells were treated with Turbo DNase at 37°C for 60 min, followed by inactivation of DNase at 75°C for 15 min.” left out, “To determine the cytotoxicity effect of the compounds on proliferating cells, HepG2.2.15 cells were seeded in 96-well plates at a density of 10,000 cells/well and incubated with serially diluted compounds at a final DMSO concentration of 0.5% for 3 days, after which the medium was removed, fresh medium containing the compounds was added to the cells, and the cells were incubated for another 3 days.” left out

[3] = in combination with NVR 3-778, HepG2.2.15 cells, 6 days, MacSynergy II, 95% confidence
[4] = HepG2.2.15 cells, 6 days, LMV 0.15-1.5 μM

| Structure (SMILES) | Antagonism (HBV [1]; [3]) [μM^2%] | Synergy (HBV [1]; [3]) [μM^2%] | CalcuSyn-predicted effect (HBV [1]; in combination with NVR 3-778, based on overall CI) | Effect on secreted HBV RNA, single drug (HBV [2]; HepG2.2.15 cells) | EC50 (HBV [2]; HepG2.2.15, values used as starting concentrations of the combination study, read-out: EC50 against HBV DNA replication in HepG2.2.15 cells) [nM] | Effect on cell viability (HepG2.2.15 cells) | Effect of adding 0.4 μM NVR 3-778 to LMV on secreted HBV RNA (HBV [1]; [4]) | Effect of adding 2 μM and 4 μM NVR 3-778 to LMV on secreted HBV RNA (HBV [1]; [4]) | EC50 (HBV [2]; HepG2.2.15 cells, QuantiGene assay, read-out: EC50, intracellular encapsidated pgRNA (mean)) [nM] | EC50 (HBV [2]; HepG2.2.15 cells, branched DNA assay, read-out: EC50, intracellular encapsidated rcDNA (mean)) [nM] | EC50 (HBV [2]; HepG2.2.15 cells, supernatant, read-out: EC50, secreted HBV DNA (mean)) [nM] | EC50 (HBV [2]; HepG2.2.15 cells, supernatant, read-out: EC50, secreted HBV RNA (mean)) [nM] |
| --- | --- | --- | --- | --- | --- | --- | --- | --- | --- | --- | --- | --- |
| Nc1ccn([C@@H]2CS[C@H](CO)O2)c(=O)n1 [LMV, lamivudine, reference compound] | −14.3 | 5.1 | Additive | increased the production of secreted HBV RNA | 150 | did not affect cell viability |  |  |  |  |  |  |
| O=C(Nc1cc(F)c(F)c(F)c1)c1ccc(F)c(S(=O)(=O)N2CCC(O)CC2)c1 [NVR 3-778] |  |  |  | inhibited the production of secreted HBV RNA |  | did not affect cell viability | partially reversed the increase in the level of secreted HBV RNA induced by LMV | completely reverted the LMV effect | 440 | 340 | 400 | 600 |
